# Read-outs that look alike come from different tables or passages of the source.
# What was measured:
# HL-60 cells = assay: CellTiter-Glo assay, HL-60; assay type: cell-based; conditions: Homo sapiens; HL-60 Leukemia promyelocytic, 72 hr; read-out: IC50 (50% Inhibition of Proliferation)
# Experimental: (§1) MDA-MB-231, HT-29, NCI-H460, NCI-H522, NCI-H69, GXF-209, HepG2, OVAR-3, PANC-1, DU-145, LNCAP, HL-60, K-562, and MOLT-4 cell lines were either obtained from the American Type Culture Collection (ATCC; Manassas, Va.), or from the National Cancer Institute (NCI; Frederick, Md.). RPMI-1640 media, L-glutamine dipeptide (HyQ SG-200), and HEPES were obtained from Hyclone (Logan, Utah).
# (§2) All cell lines were routinely cultured twice weekly in RPMI-1640 medium supplemented with 2 mM L-glutamine dipeptide, 10 mM HEPES, and 10% FBS.
# (§3) The adherent cell lines MDA-MB-231, HT-29, NCI-H460, NCI-H522, GXF-209, HepG2, OVAR-3, PANC-1, DU-145, and LNCAP cells were each seeded into two 96-well plates at 2,500 cells per well in a total volume of 50 uL and incubated in a 37° C. humidified 5% CO2 cell culture incubator overnight. The suspension cell lines NCI-H69, HL-60, K-562, and MOLT-4 were each seeded into two 96-well plates at 10,000 cell per well in a total volume of 50 uL and incubated in a 37° C. humidified 5% CO2 incubator overnight.
# (§4) This was followed by making 2× stocks of the final concentrations required in RPMI-1640 medium. […]
# (§5) Briefly, plates were removed from the incubator and placed on the bench at room temperatures for 30 minutes. […] Luminescence was then recorded using the PerkinElmer Microbeta scintillation and luminescence counter (Trilux).
# CP Control = assay: Antifungal susceptibility testing (broth dilution), CP Control; assay type: cell-based; conditions: read-out: minimum inhibitory concentration (MIC)
# Experimental: (§6) Anti-fungal testing was completed with a common lot for compounds 100 and 102.
# (§7) A 10 mg portion of each powder was weighed out and added to 1 ml of sterile distilled water for compound 100 and DMSO for compound 102. The resulting concentration of […] was diluted to a working concentration of 640 μg/ml for each compound. All subsequent dilutions were also made using the respective diluents. Final testing concentrations ranged from 0.125-64 μg/ml.
# (§8) A total of 23 isolates were tested to include 3 Candida albicans, 3 Candida glabrata, 3 Cryptococcus neoformans, 3 Aspergillus fumigatus, 3 Rhizopus oryzae, 3, Fusarium solani, 3 Pseudallescheria boydii, and 2 […] rubrum. All isolates were clinical isolates submitted to the Fungus Testing Laboratory for evaluation. Antifungal susceptibility testing was accomplished according to the methods outlined in the National Committee for Clinical Laboratory Standards, M-27A2, Reference Method for Broth Dilution Antifungal Susceptibility Testing of Yeasts; Approved Standard, and M38-A “Reference Method for Broth Dilution Antifungal Susceptibility Testing of Conidium-Forming Filamentous Fungi; Approved Standard”. This includes testing in RPMI-1640 with glutamine and without bicarbonate, an inoculum size of 0.5-2.5×10^3 for yeasts or 1-5×10^4 for moulds, and incubation at 35° C. for 24 and 48 hours.
# F. solani = assay: Antifungal susceptibility testing (broth dilution), F. solani; assay type: cell-based, Fusarium solani; conditions: for MIC: Fusarium solani, read-out: minimum inhibitory concentration (MIC)
# Experimental: as §6, §7, §8
# R. arrhizus = assay: Antifungal susceptibility testing (broth dilution), R. arrhizus; assay type: cell-based, Rhizopus oryzae; conditions: for MIC: Rhizopus arrhizus, read-out: minimum inhibitory concentration (MIC)
# Experimental: as §6, §7, §8
# MOLT-4 cells = assay: CellTiter-Glo assay, MOLT-4; assay type: cell-based; conditions: Homo sapiens; MOLT-4 acute lympho, 72 hr; read-out: IC50 (50% Inhibition of Proliferation)
# Experimental: as §1, §2, §3, §4, §5
# PANC-1 cells = assay: CellTiter-Glo assay, PANC-1; assay type: cell-based; conditions: Homo sapiens; PANC-1 Pancreas, 72 hr; read-out: IC50 (50% Inhibition of Proliferation)
# Experimental: as §1, §2, §3, §4, §5
# DU-145 cells = assay: CellTiter-Glo assay, DU-145; assay type: cell-based; conditions: Homo sapiens; DU-145 Prostate, 72 hr; read-out: IC50 (50% Inhibition of Proliferation)
# Experimental: as §1, §2, §3, §4, §5
# LNCAP cells = assay: CellTiter-Glo assay, LNCAP; assay type: cell-based; conditions: Homo sapiens; LNCAP Prostate, 72 hr; read-out: IC50 (50% Inhibition of Proliferation)
# Experimental: as §1, §2, §3, §4, §5
# P. boydii = assay: Antifungal susceptibility testing (broth dilution), P. boydii; assay type: cell-based, Pseudallescheria boydii; conditions: for MIC: Scedosporium boydii, read-out: minimum inhibitory concentration (MIC)
# Experimental: as §6, §7, §8
# [1] = test system: medulloblastoma cell line DAOY; assay: Inhibition of growth of medulloblastoma cell line DAOY; assay type: cell-based; conditions: over 7 days (FIG. 16)
# From the text: For all cell culture experiments, cells are allowed to grow in the presence or absence of different concentrations of drug or in the presence of the vehicle used to dissolve the drug, PBS for compound 100 and DMSO for compound 102. Cell counts are done in triplicate on day 3 and day 7 and inhibition of growth is expressed as a percentage of the number of cells present in the experimental well divided by the number of cells in a control well.
Structure (SMILES),IC50 (HL-60 cells),MIC (CP Control; 24 Hours),MIC (CP Control; 48 Hours),"minimum inhibitory concentration (MIC) (F. solani; isolate 07-1755, 24 Hours)","minimum inhibitory concentration (MIC) (F. solani; isolate 07-1755, 48 Hours)","minimum inhibitory concentration (MIC) (F. solani; isolate 07-1867, 24 Hours)","minimum inhibitory concentration (MIC) (F. solani; isolate 07-1867, 48 Hours)","minimum inhibitory concentration (MIC) (R. arrhizus; isolate 07-2044, 24 Hours)","minimum inhibitory concentration (MIC) (R. arrhizus; isolate 07-2044, 48 Hours)","minimum inhibitory concentration (MIC) (R. arrhizus; isolate 07-2078, 24 Hours)","minimum inhibitory concentration (MIC) (R. arrhizus; isolate 07-2078, 48 Hours)",IC50 (MOLT-4 cells),IC50 (PANC-1 cells),IC50 (DU-145 cells),IC50 (LNCAP cells),"minimum inhibitory concentration (MIC) (P. boydii; isolate 07-1502, 24 Hours)","minimum inhibitory concentration (MIC) (P. boydii; isolate 07-1502, 48 Hours)","minimum inhibitory concentration (MIC) (P. boydii; isolate 07-1601, 24 Hours)","minimum inhibitory concentration (MIC) (P. boydii; isolate 07-1601, 48 Hours)",other results
"CC(C)(C)OC(=O)N1CCN(C(=O)C2C(C(=O)O)[C@H]3CC[C@@H]2O3)CC1 (stereo in doubt) [Compound 102, 4-(3-Carboxy-7oxa-bicyclo[2.2.1]heptane-2-carbonyl)piperazine-1-carboxylic acid tert-butyl ester]",6.5 µM,> 64 µg/mL,> 64 µg/mL,>64 µg/mL,>64 µg/mL,>64 µg/mL,>64 µg/mL,>64 µg/mL,>64 µg/mL,>64 µg/mL,>64 µg/mL,5.6 µM,20.7 µM,13 µM,0.48 µM,>64 µg/mL,>64 µg/mL,>64 µg/mL,>64 µg/mL,"MIC (F. solani; isolate 07-1399, 24 Hours): > 64 µg/mL; MIC (F. solani; isolate 07-1399, 48 Hours): > 64 µg/mL; MIC (R. arrhizus; isolate 07-1870, 24 Hours): > 64 µg/mL; MIC (R. arrhizus; isolate 07-1870, 48 Hours): > 64 µg/mL; MIC (P. boydii; isolate 07-1333, 24 Hours): > 64 µg/mL; MIC (P. boydii; isolate 07-1333, 48 Hours): > 64 µg/mL"
"CN1CCN(C(=O)C2C(C(=O)O)[C@H]3CC[C@@H]2O3)CC1 (stereo partly drawn) [Compound 100, Endothall 4-Methylpiperazine Monoamide]",7.7 µM,> 64 µg/mL,> 64 µg/mL,>64 µg/mL,>64 µg/mL,>64 µg/mL,>64 µg/mL,>64 µg/mL,>64 µg/mL,>64 µg/mL,>64 µg/mL,5.7 µM,25.1 µM,16.4 µM,1.5 µM,>64 µg/mL,>64 µg/mL,>64 µg/mL,>64 µg/mL,Inhibition of growth of DAOY (in words) [1]: dose dependent inhibition; MIC (F. solani; 24 h): > 64 µg/mL; MIC (F. solani; 48 h): > 64 µg/mL; MIC (R. arrhizus; 24 h): > 64 µg/mL; MIC (R. arrhizus; 48 h): > 64 µg/mL; MIC (P. boydii; 24 h): > 64 µg/mL; MIC (P. boydii; 48 h): > 64 µg/mL

# Source: patent US10023587B2, “Oxabicycloheptanes and oxabicycloheptenes, their preparation and use” (LIXTE BIOTECHNOLOGY, INC., priority 2007, dated 2018)
